Here are results for 43 compounds from ChEMBL document CHEMBL4330100, “Selective estrogen receptor degraders with novel structural motifs induce regression in a tamoxifen-resistant breast cancer xenograft” (Bioorg Med Chem Lett, 2019).

For one assay, the system named is Rattus norvegicus. The assay is described as follows: In vivo antagonist activity at estrogen receptor in CD-IGS rat assessed as inhibition of estrogen-stimulated uterine growth at 1 mg/kg, po administered daily 15 mins before estrogen treatment for 3 days and measured 24 hrs post last dose relative to ARN-180. The class given is functional.
The target of a further assay is T1, Estrogen receptor (Homo sapiens, UniProt P03372).
T1 sequence (P03372 whole entry): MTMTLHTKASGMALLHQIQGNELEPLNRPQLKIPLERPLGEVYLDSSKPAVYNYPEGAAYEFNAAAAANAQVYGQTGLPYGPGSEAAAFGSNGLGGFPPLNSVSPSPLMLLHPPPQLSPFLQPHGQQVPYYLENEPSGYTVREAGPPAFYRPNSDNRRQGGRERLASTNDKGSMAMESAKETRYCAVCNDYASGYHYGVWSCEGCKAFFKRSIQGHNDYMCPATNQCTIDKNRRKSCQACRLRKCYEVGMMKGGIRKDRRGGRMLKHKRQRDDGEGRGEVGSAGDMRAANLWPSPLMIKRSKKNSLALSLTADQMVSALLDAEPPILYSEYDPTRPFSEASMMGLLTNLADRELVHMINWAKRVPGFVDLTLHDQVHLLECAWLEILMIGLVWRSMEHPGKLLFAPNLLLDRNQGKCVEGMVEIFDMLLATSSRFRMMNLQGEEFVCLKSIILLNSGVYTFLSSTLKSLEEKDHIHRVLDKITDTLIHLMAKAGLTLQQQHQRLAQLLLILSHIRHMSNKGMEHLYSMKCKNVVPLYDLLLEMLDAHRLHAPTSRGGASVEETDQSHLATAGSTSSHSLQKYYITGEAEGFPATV
Put plainly: Induction of ERalpha degradation in human MCF7 cells in phenol red free RPMI medium containing 5% charcoal-stripped FBS incubated for 4 hrs by IRDye 800CW/DRAQ5 dye based in-cell Western assay.

Another assay deals with MCF7. The assay is described as follows: Antiproliferative activity against human MCF7 cells assessed as reduction in cell proliferation measured after 5 days by Cell-titer-Glo assay. The class given is functional, cell-based. As to conditions: MCF7, 120 h.
Assay [1] deals with T2, Estrogen receptor (Homo sapiens) (UniProt P03372).
T2 sequence (whole entry): T1 sequence (P03372 whole entry)
Put plainly: Induction of ERalpha degradation in human MCF7 cells in phenol red free RPMI medium containing 5% charcoal-stripped FBS incubated for 4 hrs by IRDye 800CW/DRAQ5 dye based in-cell Western assay relative to fulvestrant.

The target of assay [2] is T2, Estrogen receptor (Homo sapiens). The assay is described as follows: Induction of ERalpha degradation in human MCF7 cells in phenol red free RPMI medium containing 5% charcoal-stripped FBS at 2 to 10 uM incubated for 4 hrs by IRDye 800CW/DRAQ5 dye based in-cell Western assay relative to fulvestrant.

In general, EC50 refers to the concentration needed to bring the measured effect to its halfway point. Higher therefore signals lower potency in that assay. As usually defined, the IC50 is the concentration at which inhibition is half-maximal. For `O=C(O)/C=C/c1ccc(/C(=C(\c2ccc(F)cc2Cl)C2CCC2)c2ccc3scnc3c2)cc1`, in the assay with Rattus norvegicus, the Efficacy was 91%. For the same compound, on Estrogen receptor, the EC50 was determined as 0.7 nM. Also, in the assay with MCF7, the IC50 came out at 3 nM.
For the compound `O=C(O)/C=C/c1ccc(/C(=C(\c2ncc(C(F)(F)F)cc2Cl)C2CCC2)c2ccc(N3CCOCC3)cc2)cc1`, in assay [1], the Efficacy amounted to 92%. The EC50 on Estrogen receptor turned out to be 4.1 nM. Besides, the IC50 in the assay on MCF7 amounted to 20 nM.
For `CC/C(=C(/c1ccc(/C=C/C(=O)O)cc1)c1ccc2ocnc2c1)c1ccccc1`, the Efficacy in assay [2] was 86%. Besides, at Estrogen receptor, it took 460 nM to reach a half-maximal effect (EC50). Also, the IC50 with MCF7 was more than 500 nM.
In the same order, the values of `CC/C(=C(/c1ccc(/C=C/C(=O)O)cc1)c1ccc2sc(C)nc2c1)c1ccccc1` are 88%, 150 nM and more than 500 nM.
With `CC/C(=C(/c1ccc(/C=C/C(=O)O)cc1)c1ccc2nnnn2c1)c1ccccc1`, the EC50 at Estrogen receptor is more than 500 nM. In addition, the IC50 in the assay on MCF7 is more than 500 nM.
Consider `O=C(O)/C=C/c1ccc(/C(=C(\c2ccc(F)cc2Cl)C2CCC2)c2ccc(-c3cn[nH]c3)cc2)cc1`, for which the Efficacy in the assay with Rattus norvegicus is 91%. This compound showed an EC50 on Estrogen receptor of 1.1 nM. Also, in the assay with MCF7, the IC50 came out at 2.9 nM.
In turn, `CC/C(=C(/c1ccc(/C=C/C(=O)O)cc1)c1ccc2ncsc2c1)c1ccccc1` had an Efficacy in assay [2] of 86%. Also, the midpoint of the response at Estrogen receptor, the EC50, lay at 240 nM. Further, the IC50 in the assay on MCF7 is more than 500 nM.
As to `CC/C(=C(/c1ccc(/C=C/C(=O)O)cc1)c1ccc(-c2cncs2)cc1)c1ccccc1`, the Efficacy in assay [1] was 90%. Besides, the midpoint of the response at Estrogen receptor, the EC50, lay at 7.4 nM. In the assay with MCF7, the half-maximal inhibitory concentration (IC50) was found to be 31 nM.
In the same order, the values of `CC/C(=C(/c1ccc(/C=C/C(=O)O)cc1)c1ccc(-c2cnco2)cc1)c1ccccc1` are 92%, 17 nM and 51 nM.
`CC/C(=C(/c1ccc(/C=C/C(=O)O)cc1)c1ccc(-c2cnn(C)c2)cc1)c1ccccc1` returned an Efficacy in assay [1] of 92%. The compound also showed an EC50 at Estrogen receptor of 15 nM. Also, the IC50 in the assay with MCF7 came out at 80 nM.
In assay [1], `N#Cc1cc(Cl)ccc1/C(=C(\c1ccc(/C=C/C(=O)O)cc1)c1ccc2nccn2c1)C1CCC1` registered an Efficacy of 93%. At Estrogen receptor, this compound had a 50% effective concentration (EC50) of 4.3 nM. The IC50 in the assay with MCF7 turned out to be 5.9 nM.
In the same order, the values of `N#Cc1cc(Cl)ccc1/C(=C(\c1ccc(/C=C/C(=O)O)cc1)c1ccc(N2CCOCC2)cc1)C1CCC1` are 92%, 5 nM and 12 nM.
In the same order, the values of `CC/C(=C(/c1ccc(/C=C/C(=O)O)cc1)c1ccc(N2CCOCC2)cc1)c1ccccc1` are 91%, 50 nM and 94 nM.
Regarding `CC/C(=C(/c1ccc(/C=C/C(=O)O)cc1)c1ccc2sncc2c1)c1ccccc1`, the Efficacy in assay [2] stood at 90%. The compound further displayed a 50% effective concentration (EC50) on Estrogen receptor of 200 nM. Also, the concentration for half-maximal inhibition (IC50) in the assay on MCF7 was more than 500 nM.
For the compound `CC/C(=C(/c1ccc(/C=C/C(=O)O)cc1)c1ccc(-c2cscn2)cc1)c1ccccc1`, the Efficacy in assay [1] was 90%. Further, the response on Estrogen receptor was half-maximal at 37 nM (EC50). In the assay on MCF7, the concentration for half-maximal inhibition (IC50) came out at 120 nM.
Take `CC/C(=C(/c1ccc(/C=C/C(=O)O)cc1)c1ccc(-n2ccnc2)cc1)c1ccccc1`: the Efficacy in assay [2] worked out at 89%. In addition, the EC50 on Estrogen receptor is 300 nM. For the same compound, in the assay on MCF7, the IC50 came out at 380 nM.
In assay [1], `CC/C(=C(/c1ccc(/C=C/C(=O)O)cc1)c1ccc(-c2cnsc2)cc1)c1ccccc1` came in with an Efficacy of 89%. This compound had an EC50 at Estrogen receptor of 28 nM. In addition, the IC50 in the assay with MCF7 was 120 nM.
In the same order, the values of `CC/C(=C(/c1ccc(/C=C/C(=O)O)cc1)c1ccc2scnc2c1)c1ccccc1` are 89%, 22 nM and 90 nM.
In the same order, the values of `O=C(O)/C=C/c1ccc(/C(=C(\c2ccc(C(F)(F)F)cc2Cl)C2CCC2)c2ccc(-c3cn[nH]c3)cc2)cc1` are 93%, 4.8 nM and 16 nM.
In the same order, the values of `N#Cc1ccc(/C(=C(\c2ccc(/C=C/C(=O)O)cc2)c2ccc(-c3cncs3)cc2)C2CCC2)c(Cl)c1` are 94%, 1.8 nM and 2.9 nM.
In the case of `CC/C(=C(/c1ccc(/C=C/C(=O)O)cc1)c1ccc(-c2nccs2)cc1)c1ccccc1`, the Efficacy in assay [2] stood at 91%. Besides, the EC50 at Estrogen receptor stood at 83 nM. The half-inhibitory concentration (IC50) in the assay with MCF7 is 290 nM.
As to `CC/C(=C(/c1ccc(/C=C/C(=O)O)cc1)c1ccc(-c2cc[nH]n2)cc1)c1ccccc1`, the Efficacy in assay [2] was determined as 86%. Moreover, the EC50 at Estrogen receptor stood at 99 nM. Besides, the IC50 with MCF7 amounted to 440 nM.
In the same order, the values of `CC/C(=C(/c1ccc(/C=C/C(=O)O)cc1)c1ccn2nccc2c1)c1ccccc1` are 90%, 350 nM and more than 500 nM.
Turning to `CC/C(=C(\c1ccccc1)c1ccc(/C=C/C(=O)O)cc1)c1ccccc1`, in assay [2], the Efficacy amounted to 85%.
On to `O=C(O)/C=C/c1ccc(/C(=C(\c2ncc(C(F)(F)F)cc2Cl)C2CCC2)c2ccc(-c3cncs3)cc2)cc1`, for which the Efficacy in assay [1] came out at 93%. Moreover, at Estrogen receptor, a half-maximal effect (EC50) was put at 1.4 nM. Moreover, in the assay with MCF7, the half-maximal inhibitory concentration (IC50) is 7.3 nM.
In the case of `CC/C(=C(/c1ccc(/C=C/C(=O)O)cc1)c1ccc2cncn2c1)c1ccccc1`, in assay [2], the Efficacy is 86%. At Estrogen receptor, the EC50 amounted to 260 nM. Further, the IC50 with MCF7 was more than 500 nM.
In the same order, the values of `CC/C(=C(/c1ccc(/C=C/C(=O)O)cc1)c1ccc2nccn2c1)c1ccccc1` are 86%, 75 nM and 170 nM.
The compound `O=C(O)/C=C/c1ccc(/C(=C(\c2ncc(C(F)(F)F)cc2Cl)C2CCC2)c2ccc(-c3cn[nH]c3)cc2)cc1` registered an Efficacy in assay [1] of 93%. Further, the midpoint of the response on Estrogen receptor, the EC50, lay at 2.8 nM. In addition, the 50% inhibitory concentration (IC50) in the assay on MCF7 was found to be 16 nM.
For `CC/C(=C(/c1ccc(/C=C/C(=O)O)cc1)c1ccc2c(cnn2C)c1)c1ccc(F)cc1Cl`, in assay [1], the Efficacy was 86%. The EC50 at Estrogen receptor turned out to be 27 nM. Moreover, in the assay with MCF7, the IC50 was 81 nM.
In the same order, the values of `CC/C(=C(/c1ccc(/C=C/C(=O)O)cc1)c1ccc(-c2cn[nH]c2)cc1)c1ccccc1` are 91%, 12 nM and 40 nM.
Regarding `O=C(O)/C=C/c1ccc(/C(=C(\c2ccccc2)C2CCC2)c2ccc(-c3cn[nH]c3)cc2)cc1`, the Efficacy in assay [1] was determined as 90%. On Estrogen receptor, this compound returned a concentration giving a half-maximal response (EC50) of 2.1 nM. For the same compound, the half-maximal inhibitory concentration (IC50) in the assay with MCF7 turned out to be 11 nM.
Take `CC/C(=C(/c1ccc(/C=C/C(=O)O)cc1)c1ccc(N2CCCCC2)cc1)c1ccccc1`: the Efficacy in assay [2] worked out at 90%. The compound also showed an EC50 at Estrogen receptor of 190 nM. Further, the IC50 in the assay with MCF7 was 450 nM.
In the same order, the values of `CC/C(=C(/c1ccc(/C=C/C(=O)O)cc1)c1ccc2c(cnn2C)c1)c1ccccc1` are 84%, 140 nM and 300 nM.
With `N#Cc1ccc(/C(=C(\c2ccc(/C=C/C(=O)O)cc2)c2ccc(N3CCOCC3)cc2)C2CCC2)c(Cl)c1`, in assay [1], the Efficacy amounted to 92%. Also, the EC50 on Estrogen receptor was 4.2 nM. Also, in the assay on MCF7, the IC50 is 7.5 nM.
In the same order, the values of `O=C(O)/C=C/c1ccc(/C(=C(\c2ccc(C(F)(F)F)cc2Cl)C2CCC2)c2ccc3nccn3c2)cc1` are 94%, 1.5 nM and 5.1 nM.
In the case of `CC/C(=C(/c1ccc(/C=C/C(=O)O)cc1)c1ccn2nncc2c1)c1ccccc1`, the Efficacy in assay [2] was 86%. This compound gave an EC50 at Estrogen receptor of 340 nM. Besides, the half-inhibitory concentration (IC50) with MCF7 is more than 500 nM.
In the case of `N#Cc1ccc(/C(=C(\c2ccc(/C=C/C(=O)O)cc2)c2ccc3nccn3c2)C2CCC2)c(Cl)c1`, the Efficacy in assay [1] was 93%. The response at Estrogen receptor was half-maximal at 19 nM (EC50). Besides, in the assay on MCF7, the half-maximal inhibitory concentration (IC50) was found to be 15 nM.
For the compound `CC/C(=C(/c1ccc(/C=C/C(=O)O)cc1)c1ccn2ccnc2c1)c1ccccc1`, at Estrogen receptor, the EC50 was more than 500 nM. For the same compound, the IC50 with MCF7 is more than 500 nM.
In assay [2], `CC/C(=C(/c1ccc(/C=C/C(=O)O)cc1)c1ccc2ccccc2c1)c1ccccc1` gave an Efficacy of 91%. Further, a half-maximal response on Estrogen receptor (EC50) required 57 nM. Besides, in the assay with MCF7, the IC50 was 180 nM.
Compound `O=C(O)/C=C/c1ccc(/C(=C(\c2ccccc2)C2CCC2)c2ccc3scnc3c2)cc1` gave an Efficacy in assay [1] of 88%. Moreover, at Estrogen receptor, the EC50 is 5.9 nM. Further, the IC50 in the assay on MCF7 came out at 16 nM.
With `CC/C(=C(\c1ccc(O)cc1)c1ccc(/C=C/C(=O)O)cc1)c1ccccc1`, the 50% inhibitory concentration (IC50) in the assay with MCF7 amounted to 4.6 nM.
Take `CC/C(=C(/c1ccc(/C=C/C(=O)O)cc1)c1ccc(N2CCN(C)CC2)cc1)c1ccccc1`: the Efficacy in assay [2] is 85%. The EC50 at Estrogen receptor stood at 90 nM. Besides, in the assay on MCF7, the concentration for half-maximal inhibition (IC50) was 220 nM.
At Estrogen receptor, `CC/C(=C(/c1ccc(/C=C/C(=O)O)cc1)c1ccc2nncn2c1)c1ccccc1` came in with an EC50 of more than 500 nM. The concentration for half-maximal inhibition (IC50) in the assay with MCF7 is more than 500 nM.
